This note sets out measurements from patent US12612409B2, “Pyrrolopyrimidines as CFTR potentiators” (Cystic Fibrosis Foundation, priority 2016, dated 2026).

The target of test [1] is T1, recombinant F508del V470 CFTR in Fischer rat thyroid (FRT) cells (Homo sapiens, UniProt P13569, DEL508-508).
T1 construct: expressed in transfected cells
Kind of test: FRT ion flux assay of F508del CFTR potentiation. Format: cell-based. The settings on record: FRT cells expressing F508del V470 CFTR, forskolin 20 uM, 27° C. pre-incubation. The procedure: FRT Ion Flux Assay of F508del CFTR Potentiation
Fischer rat thyroid (FRT) cell lines stably expressing recombinant F508del V470 CFTR and halide-sensitive yellow fluorescent protein (Pedemonte et al., J. Clin. Invest. 115(9) 2564-71 (2005)) were seeded at 25,000 cells/well in 50 uL/well of culture medium into black-walled, clear bottom tissue-culture-treated 384-well plates (Corning, cat. no. 3712). After one day, the cells were pre-incubated at 27° C./5% CO2 for 16-24 hours. The cells were then washed with dPBS and treated with forskolin (20 uM) and test compound for 30 mi by addition of 20 uL of compound dilution buffer (dPBS containing forskolin and test compound). Plates were loaded into FLIPR384 fluorescence imaging plate reader (Molecular Devices). After an initial fluorescence reading, iodide buffer (25 uL) (composition (in mM): 137 NaI, 1.5 K2PO4, 8.1 NaH2PO4, 2.7 KCl, 0.5 MgCl2, 1 CaCl2) was added and a second fluorescence reading was made after approximately 21 seconds. Data treatment involved division of the second fluorescence reading by the initial fluorescence reading, then scaling of the resulting normalized endpoint fluorescence with respect to the responses for DMSO (0%) and a positive control potentiator (100%).

The target of test [2] is T2, CFTR in F508del/F508del primary CF hBE cells (Homo sapiens, UniProt P13569, DEL508-508).
T2 construct: Primary cystic fibrosis human bronchial epithelial (CF hBE) cells were expanded and cultured; endogenous in cells; host or cells: primary CF human bronchial epithelial cells, genotype F508del/F508del
T2 sequence (P13569 with tags, fused parts or gaps DEL508-508): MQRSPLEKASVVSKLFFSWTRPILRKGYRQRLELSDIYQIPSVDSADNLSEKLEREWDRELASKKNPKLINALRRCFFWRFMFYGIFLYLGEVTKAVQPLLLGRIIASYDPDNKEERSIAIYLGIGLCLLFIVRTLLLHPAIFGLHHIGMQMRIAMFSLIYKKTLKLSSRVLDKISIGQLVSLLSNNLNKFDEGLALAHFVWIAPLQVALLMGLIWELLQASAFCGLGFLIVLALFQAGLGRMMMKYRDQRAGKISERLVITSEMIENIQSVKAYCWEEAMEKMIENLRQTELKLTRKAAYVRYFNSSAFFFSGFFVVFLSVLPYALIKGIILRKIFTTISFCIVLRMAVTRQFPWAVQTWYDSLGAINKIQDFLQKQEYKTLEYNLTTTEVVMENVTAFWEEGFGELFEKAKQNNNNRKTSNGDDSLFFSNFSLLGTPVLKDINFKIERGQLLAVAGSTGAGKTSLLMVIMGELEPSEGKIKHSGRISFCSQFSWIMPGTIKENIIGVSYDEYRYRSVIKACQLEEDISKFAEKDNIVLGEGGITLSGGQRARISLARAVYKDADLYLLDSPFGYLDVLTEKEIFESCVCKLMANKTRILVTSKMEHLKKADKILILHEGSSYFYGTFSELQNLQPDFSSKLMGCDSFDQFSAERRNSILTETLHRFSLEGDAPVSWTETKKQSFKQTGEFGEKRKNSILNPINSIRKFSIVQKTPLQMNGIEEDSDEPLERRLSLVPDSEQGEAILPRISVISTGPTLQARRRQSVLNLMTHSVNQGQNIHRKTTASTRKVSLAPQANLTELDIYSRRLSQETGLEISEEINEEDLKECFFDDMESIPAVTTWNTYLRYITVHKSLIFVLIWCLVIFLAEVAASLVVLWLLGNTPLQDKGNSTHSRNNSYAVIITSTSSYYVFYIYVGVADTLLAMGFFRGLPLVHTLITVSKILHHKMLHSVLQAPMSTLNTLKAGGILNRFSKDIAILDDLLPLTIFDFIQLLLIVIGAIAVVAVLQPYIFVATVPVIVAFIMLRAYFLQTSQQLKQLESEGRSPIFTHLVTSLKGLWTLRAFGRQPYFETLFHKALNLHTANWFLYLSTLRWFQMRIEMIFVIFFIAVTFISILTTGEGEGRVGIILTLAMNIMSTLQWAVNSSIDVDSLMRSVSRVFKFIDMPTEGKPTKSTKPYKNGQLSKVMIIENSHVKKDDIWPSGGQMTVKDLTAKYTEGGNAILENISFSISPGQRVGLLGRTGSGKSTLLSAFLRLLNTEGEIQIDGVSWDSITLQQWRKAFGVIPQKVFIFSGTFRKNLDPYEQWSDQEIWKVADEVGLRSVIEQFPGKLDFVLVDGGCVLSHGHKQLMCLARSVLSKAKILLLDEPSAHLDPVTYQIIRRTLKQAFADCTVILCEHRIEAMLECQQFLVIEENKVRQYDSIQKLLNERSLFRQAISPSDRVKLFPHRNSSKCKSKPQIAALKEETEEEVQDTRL
Kind of test: Ussing chamber electrophysiology assay of CFTR potentiation in F508del/F508del CF bronchial epithelial cells (27° C.). Format: cell-based. The text has this: • SHELXTL, Version 5.1, Bruker AXS, 1997. • PLATON, A. L. Spek, J. Appl. Cryst. 2003, 36, 7-13. • MERCURY, C. F. Macrae, P. R. Edington, P. McCabe, E. Pidcock, G. P. Shields, R. Taylor, M. Towler and J. van de Streek, J. Appl. Cryst. 39, 453-457, 2006. • OLEX2, Dolomanov, O. V.; Bourhis, L. J.; Gildea, R. J.; Howard, J. A. K.; Puschmann, H., (2009). J. Appl. Cryst., 42, 339-341. • R. W. W. Hooft et al. J. Appl. Cryst. (2008). 41. 96-103. • H. D. Flack, Acta Cryst. 1983, A39, 867-881. Using Chamber Electrophysiology Assay of CFTR Potentiation in CF Bronchial Epithelial Cells
Primary cystic fibrosis human bronchial epithelial (CF hBE) cells were expanded and cultured according to published methods (Neuberger et al., Ch. 4 of Cystic Fibrosis, Methods in Molecular Biology vol. 741, pp. 39-54 (2011)). Well-differentiated cells (>30 days at air/liquid interface) on Snapwell filters (Corning Costar, cat. no. 3801) were mounted in Ussing chambers (Physiologic Instruments, Inc., San Diego, CA). […] HEPES buffered physiological saline (composition (in mM): 137 NaCl, 4 KCl, 1 MgCl2, 1.8 CaCl2), 10 HEPES Na) was used in both apical and basolateral chambers. Chambers were bubbled with air to promote mixing and the voltage was clamped to zero. Amiloride (30 uM), forskolin (10 uM), test compound (4 increasing concentrations), and CFTRinh-172 (20 uM) were added sequentially with 20-25 minutes between additions. Short-circuit currents were acquired and analyzed using LabScribe2. Test compound responses were scaled relative to responses for DMSO (0%) and the maximal response of a positive control potentiator (100%).

T1 sequence (P13569 with tags, fused parts or gaps DEL508-508): as above

With `CC(c1cnn(-c2ccc(F)cc2F)c1)n1c(C#N)c(-c2cnc(C(F)(F)F)nc2)c2c(N)ncnc21` (single isomer, unassigned) [Example 7, 4-Amino-7-{1-[1-(2,4-difluorophenyl)-1H-pyrazol-4-yl]ethyl}-5-[2-(trifluoromethyl)pyrimidin-5-yl]-7H-pyrrolo[2,3-d] pyrimidine-6-carbonitrile], the EC50 in test [1] was 2.76 nM; in test [2], 1.84 nM.

For `CC(c1cnn(-c2ccc(F)cc2F)c1)n1c(C#N)c(-c2cnc(C(F)(F)F)nc2)c2c(N)ncnc21` (single isomer, unassigned) [Example 8, 4-Amino-7-{1-[1-(2,4-difluorophenyl)-1H-pyrazol-4-yl]ethyl}-5-[2-(trifluoromethyl)pyrimidin-5-yl]-7H-pyrrolo[2,3-d] pyrimidine-6-carbonitrile], the half-maximal effective concentration (EC50) in test [1] is 35.2 nM; in test [2], 15.5 nM.

`CC(c1cn(-c2ccccc2F)nn1)n1c(C#N)c(-c2cnc(C(F)(F)F)nc2)c2c(N)ncnc21` (single isomer, unassigned) [Example 9, 4-amino-7-{1-[1-(2-fluorophenyl)-1H-1,2,3-triazol-4-yl]ethyl}-5-[2-(trifluoromethyl)pyrimidin-5-yl]-7H-pyrrolo[2,3-d] pyrimidine-6-carbonitrile]: the figures for the 50% effective concentration (EC50) in test [1] and in test [2] were 12.2 nM and 20.4 nM, respectively.

Take `CC(c1cn(-c2ccccc2F)nn1)n1c(C#N)c(-c2cnc(C(F)(F)F)nc2)c2c(N)ncnc21` (single isomer, unassigned) [Example 10, 4-Amino-7-{1-[1-(2-fluorophenyl)-1H-1,2,3-triazol-4-yl]ethyl}-5-[2-(trifluoromethyl)pyrimidin-5-yl]-7H-pyrrolo[2,3-d]pyrimidine-6-carbonitrile]: the figures for the EC50 in test [1] and in test [2] were 77.6 nM and 70.3 nM, respectively.

As for `CC(c1cn(-c2ccc(F)cc2F)nn1)n1c(C#N)c(-c2cnc(C(F)(F)F)nc2)c2c(N)ncnc21` (single isomer, unassigned) [Example 11, 4-Amino-7-{1-[1-(2,4-difluorophenyl)-1H-1,2,3-triazol-4-yl]ethyl}-5-[2-(trifluoromethyl)pyrimidin-5-yl]-7H-pyrrolo[2,3-d] pyrimidine-6-carbonitrile], the EC50 in test [1] was 19.8 nM; in test [2], 33.5 nM.

On to `Cc1c(C(C)n2c(C#N)c(-c3cnc(C(F)(F)F)nc3)c3c(N)ncnc32)nnn1-c1ccccc1F` (single isomer, unassigned) [Example 12, 4-amino-7-(1-(1-(2-fluorophenyl)-5-methyl-1H-1,2,3-triazol-4-yl)ethyl)-5-(2-(trifluoromethyl)pyrimidin-5-yl)-7H-pyrrolo[2,3-d]pyrimidine-6-carbonitrile], for which the EC50 worked out at 6.66 nM in test [1] and 22.5 nM in test [2].

As for `Cc1c(C(C)n2c(C#N)c(-c3cnc(C(F)(F)F)nc3)c3c(N)ncnc32)nnn1-c1ccccc1F` (single isomer, unassigned) [Example 13, 4-amino-7-(1-(1-(2-fluorophenyl)-5-methyl-1H-1,2,3-triazol-4-yl)ethyl)-5-(2-(trifluoromethyl)pyrimidin-5-yl)-7H-pyrrolo[2,3-d] pyrimidine-6-carbonitrile], the results for the concentration for a half-maximal effect (EC50) in test [1] and in test [2] were 96.8 nM and 267 nM, respectively.

As to `COc1ncc(-c2c(C#N)n(C(C)c3cc(-c4ccccc4F)no3)c3ncnc(N)c23)cn1` (single isomer, unassigned) [Example 14, 4-amino-7-{1-[3-(2-fluorophenyl)-1,2-oxazol-5-yl]ethyl}-5-(2-methoxypyrimidin-5-yl)-7H-pyrrolo[2,3-d]pyrimidine-6-carbonitrile], the EC50 in test [1] was found to be 23.6 nM; in test [2], 13 nM.

For `COc1ncc(-c2c(C#N)n(C(C)c3cc(-c4ccccc4F)no3)c3ncnc(N)c23)cn1` (single isomer, unassigned) [Example 15, 4-amino-7-{1-[3-(2-fluorophenyl)-1,2-oxazol-5-yl]ethyl}-5-(2-methoxypyrimidin-5-yl)-7H-pyrrolo[2,3-d]pyrimidine-6-carbonitrile], the results for the EC50 in test [1] and in test [2] were 7.22 nM and 7 nM, respectively.

Regarding `CCC(c1cn(-c2ccc(F)cc2F)nn1)n1c(C#N)c(-c2cnc(C(F)(F)F)nc2)c2c(N)ncnc21` (single isomer, unassigned) [Example 16, 4-Amino-7-{1-[1-(2,4-difluorophenyl)-1H-1,2,3-triazol-4-yl]propyl}-5-[2-(trifluoromethyl)pyrimidin-5-yl]-7H-pyrrolo[2,3-d] pyrimidin-6-carbonitrile], the EC50 in test [1] came out at 6.39 nM; in test [2] it was 9 nM.

Regarding `CCC(c1cn(-c2ccc(F)cc2F)nn1)n1c(C#N)c(-c2cnc(C(F)(F)F)nc2)c2c(N)ncnc21` (single isomer, unassigned) [Example 17, 4-Amino-7-{1-[1-(2,4-difluorophenyl)-1H-1,2,3-triazol-4-yl]propyl}-5-[2-(trifluoromethyl)pyrimidin-5-yl]-7H-pyrrolo[2,3-d] pyrimidin-6-carbonitrile], the results for the EC50 in test [1] and in test [2] were 45.3 nM and 49.5 nM, respectively.

Take `CCC(c1cn(-c2cccc(F)c2F)nn1)n1c(C#N)c(-c2cnc(C(F)(F)F)nc2)c2c(N)ncnc21` (single isomer, unassigned) [Example 18, 4-amino-7-{1-[1-(2,3-difluorophenyl)-1H-1,2,3-triazol-4-yl]propyl}-5-[2-(trifluoromethyl)pyrimidin-5-yl]-7H-pyrrolo[2,3-d] pyrimidine-6-carbonitrile]: the EC50 in test [1] came out at 10.8 nM; in test [2] it was 12.5 nM.

Consider `CCC(c1cn(-c2cccc(F)c2F)nn1)n1c(C#N)c(-c2cnc(C(F)(F)F)nc2)c2c(N)ncnc21` (single isomer, unassigned) [Example 19, 4-amino-7-{1-[1-(2,3-difluorophenyl)-1H-1,2,3-triazol-4-yl]propyl}-5-[2-(trifluoromethyl)pyrimidin-5-yl]-7H-pyrrolo[2,3-d] pyrimidine-6-carbonitrile], for which the EC50 stood at 69.6 nM in test [1] and 34.7 nM in test [2].

Turning to `CCC(c1cnn(-c2ccc(F)cc2F)c1)n1c(C#N)c(-c2cnc(C(F)(F)F)nc2)c2c(N)ncnc21` (single isomer, unassigned) [Example 20, 4-Amino-7-{1-[1-(2,4-difluorophenyl)-1H-pyrazol-4-yl]propyl}-5-[2-(trifluoromethyl)pyrimidin-5-yl]-7H-pyrrolo[2,3-d]pyrimidine-6-carbonitrile], the EC50 was 14.1 nM in test [1] and 5.48 nM in test [2].

In the case of `CCC(c1cnn(-c2ccc(F)cc2F)c1)n1c(C#N)c(-c2cnc(C(F)(F)F)nc2)c2c(N)ncnc21` (single isomer, unassigned) [Example 21, 4-Amino-7-{1-[1-(2,4-difluorophenyl)-1H-pyrazol-4-yl]propyl}-5-[2-(trifluoromethyl)pyrimidin-5-yl]-7H-pyrrolo[2,3-d]pyrimidine-6-carbonitrile], the values for the EC50 in test [1] and in test [2] were 0.87 nM and 0.45 nM, respectively.

Take `CCC(c1cn(-c2ccccc2F)nn1)n1c(C#N)c(-c2cnc(C(F)(F)F)nc2)c2c(N)ncnc21` (single isomer, unassigned) [Example 22, 4-Amino-7-{1-[1-(2-fluorophenyl)-1H-1,2,3-triazol-4-yl]propyl}-5-[2-(trifluoromethyl)pyrimidin-5-yl]-7H-pyrrolo[2,3-d]pyrimidine-6-carbonitrile]: the EC50 in test [1] amounted to 4.05 nM; in test [2], 6.84 nM.

By EC50 is commonly meant the midpoint of the concentration-response curve.
